{"source": "ChEMBL document CHEMBL4024743", "about": "“BACE-1 Inhibitors: From Recent Single-Target Molecules to Multitarget Compounds for Alzheimer's Disease” (J Med Chem, 2018)", "key": {"[1]": {"target": "Glycogen synthase kinase-3 beta (Homo sapiens, UniProt P49841)", "sequence (P49841 whole entry)": "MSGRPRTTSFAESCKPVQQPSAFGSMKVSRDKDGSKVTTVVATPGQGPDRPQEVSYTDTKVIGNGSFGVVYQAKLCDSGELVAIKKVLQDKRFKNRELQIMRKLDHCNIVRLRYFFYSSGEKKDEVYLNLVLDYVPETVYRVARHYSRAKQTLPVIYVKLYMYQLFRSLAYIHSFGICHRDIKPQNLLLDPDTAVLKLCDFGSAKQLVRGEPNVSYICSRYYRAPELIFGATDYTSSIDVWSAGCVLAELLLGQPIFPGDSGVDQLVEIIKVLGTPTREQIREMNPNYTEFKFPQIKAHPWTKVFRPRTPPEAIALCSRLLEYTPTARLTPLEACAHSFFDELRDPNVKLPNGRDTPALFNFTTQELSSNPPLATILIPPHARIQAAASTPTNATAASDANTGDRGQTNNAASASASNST", "experiment": "Inhibition of recombinant human GSK3beta using prephosphorylated polypeptide as substrate preincubated for 30 mins followed by addition of kinase-glo stop solution measured after 10 mins by Kinase-Glo luminescence assay"}, "[2]": {"experiment": "Drug uptake in CD16 mouse brain at 3 mg/kg, po after 30 mins by LC-MS/MS analysis", "format": "ADME, organism-based", "details": "read-out: Drug uptake"}, "[3]": {"experiment": "Oral bioavailability in CD16 mouse at 10 mg/kg", "format": "ADME, organism-based", "details": "in vivo"}, "[4]": {"target": "T1, Beta-secretase 1 (Homo sapiens, UniProt P56817)", "T1 sequence (P56817 whole entry)": "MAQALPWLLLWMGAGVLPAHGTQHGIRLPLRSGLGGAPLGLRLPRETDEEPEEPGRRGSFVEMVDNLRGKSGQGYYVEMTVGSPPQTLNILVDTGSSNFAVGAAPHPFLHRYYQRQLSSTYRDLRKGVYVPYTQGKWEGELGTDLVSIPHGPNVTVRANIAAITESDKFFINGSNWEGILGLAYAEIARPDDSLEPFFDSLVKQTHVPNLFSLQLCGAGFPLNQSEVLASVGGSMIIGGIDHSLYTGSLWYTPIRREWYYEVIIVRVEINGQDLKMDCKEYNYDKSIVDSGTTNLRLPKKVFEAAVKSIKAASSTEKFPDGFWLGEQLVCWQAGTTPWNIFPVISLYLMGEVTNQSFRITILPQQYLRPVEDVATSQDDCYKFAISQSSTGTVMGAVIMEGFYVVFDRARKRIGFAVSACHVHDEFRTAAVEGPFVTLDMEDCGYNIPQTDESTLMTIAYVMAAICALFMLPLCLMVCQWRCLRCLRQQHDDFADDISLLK", "experiment": "Inhibition of human BACE-1 preincubated for 1 hr followed by substrate addition measured after 60 mins by FRET assay"}, "[5]": {"target": "T1, Beta-secretase 1", "description": "Inhibition of BACE-1 (unknown origin) using APP derived polypeptide harboring Lys-Met/Asn-Leu mutation as substrate by FRET assay"}, "[6]": {"target": "T1, Beta-secretase 1", "experiment": "Inhibition of BACE-1 (unknown origin)"}}, "note": "pIC50: −log10 of the molar value."}
{"molecule": "NC1=NC(c2ccc(F)cc2)NC(=O)N1", "note": "(stereo not drawn)", "values": [{"measurement": "pIC50", "setting": "[1]", "value": 4.83}, {"measurement": "concentration at 0.5 h", "setting": "[2]", "value": 620, "unit": "nM"}, {"measurement": "bioavailability", "setting": "[3]", "value": 66, "unit": "%"}]}
{"molecule": "OC1=C2Nc3ccccc3N=C2OC1c1c[nH]c2ccc(COc3ccccc3)cc12", "note": "(stereo not drawn)", "values": [{"measurement": "pIC50", "setting": "[4]", "value": 5.74}]}
{"molecule": "CC#Cc1cncc(-c2ccc3c(c2)[C@]2(CO3)N=C(N)C[C@@H]2C(F)(F)F)c1", "values": [{"measurement": "pIC50", "setting": "[5]", "value": 6.94}]}
{"molecule": "CC1Cc2ccc(OC(=O)c3ccc(NC(=N)N)cc3)cc2OC1=O", "note": "(stereo not drawn)", "values": [{"measurement": "pIC50", "setting": "[4]", "value": 5.82}]}
{"molecule": "O=C1NC(=O)C2C=CNC2N1", "note": "(stereo not drawn)", "values": [{"measurement": "pIC50", "setting": "[6]", "value": 4.52}]}
{"molecule": "O=C1CSC2(CCN(CCCN3c4ccccc4Sc4ccc(Cl)cc43)CC2)N1", "note": "[SPICLOMAZINE]", "values": [{"measurement": "pIC50", "setting": "[4]", "value": 5.18}]}
